Experimental data from patent publication US20230126310A1 (priority 2020, published 2023).
Counter-ions that a name gives are not always drawn. Like-named read-outs stand apart in the source and are kept apart here.

Legend:
CaCo-2 cells = assay: Compound cytotoxicity against CaCo-2 cells at 48 hours; assay type: cell-based, Human; details: read-out: CC50: concentration of 50% cytotoxicity; Table 5, further results of Examples 1 and 2; mean ± spread
Procedure: The cytotoxicity of the profiled compounds towards CaCo-2 cells at 48 hours was assessed. […] After 48 hours, cytotoxicity was evaluated using both digital phase contrast readout as described above and ATP determination (Cell titre-glo, Promega Corp).

SARS-CoV-2 = details: for % Inh. (% Inhibition of SARS-CoV-2): 10 µM
[1] = system: SARS-CoV-2 (BetaCov/Belgium/GHB-03021/2020); assay: microbe, parasite or virus in culture; assay type: cell-based
[2] = Table 5, further results of Examples 1 and 2
[3] = read-out: IC50: concentration of 50% inhibition of virus infection, Table 5, further results of Examples 1 and 2, […]

Molecule | CC50 (CaCo-2 cells) [µM] | pIC50 (SARS-CoV-2) | % Inh. (% Inhibition of SARS-CoV-2) (SARS-CoV-2) [%] | pIC50: -log10 of IC50 (SARS-CoV-2; [2]) | IC50 (SARS-CoV-2; [3]) [µM] | IC50 (SARS-CoV-2) [µM] | Maximum confluence reached (%) [1] [%] | IC50 ([1]; read-out: IC50) [µM] | pIC50: -log10 of IC50 (SARS-CoV-2) | IC50 (SARS-CoV-2; read-out: IC50: concentration of 50% inhibition of virus infection) [µM]
FC(F)(F)Oc1ccc2nc(-c3ccc(OCCOCCOc4ccc(-c5nc6ccc(OC(F)(F)F)cc6[nH]5)nc4)cn3)[nH]c2c1 [AI-10-49] | 6.58 ± 9.76 | 6.68 | 103.8 | 6.72 | 0.19 ± 0.06 |  |  |  |  | 
CCOC(=O)c1ncc2[nH]c3ccc(OCc4ccccc4)cc3c2c1COC.Cl [ZK-93423] | 0.91 ± 0.13 | 5.89 | 75.1 | 5.87 | 1.34 ± 0.92 | 1.28 |  |  |  | 
CC(C)(C)c1cc(/C=C(\C#N)C(N)=S)cc(C(C)(C)C)c1O [Tyrphostin AG 879 (AG 879), Tyrphostin AG 879] | 1.36 ± 0.08 | 6.70 | 104.2 | 6.70 | 0.2 ± 0.01 | 0.2 |  |  |  | 
Nc1nccc(-c2c(-c3ccc(F)cc3)ncn2C2CCCCC2)n1 [PF-670462] | 8.24 ± 7.87 |  | 111.6 |  |  |  |  |  |  | 
Cl.Nc1nc(NCC2CCC(CNS(=O)(=O)c3cccc4ccccc34)CC2)nc2ccccc12 (stereo not shown) [CGP-71683] |  |  | 102.5 |  |  |  | 39.25 |  |  | 
CC(C)(C)c1ccc(/C=C/C(=O)Nc2ccc3c(c2)OCCO3)cc1 [AMG-9810] | 14.2 ± 17.9 |  | 93.7 |  |  |  |  |  |  | 
CCCCC1(C2CCCC2)Cc2cc(OCCCC(=O)O)c(Cl)c(Cl)c2C1=O (stereo not shown) [DCPIB] | 24.6 ± 11.7 |  | 80.3 |  |  |  |  |  |  | 
Cn1cc(-c2ccc3c(c2)CCN3C(=O)Cc2cccc(C(F)(F)F)c2)c2c(N)ncnc21 [GSK2606414] | 70.4 ± 15.3 | 6.70 | 109.9 | 6.60 | 0.25 ± 0.06 | 0.2 |  |  |  | 
Cn1cc(-c2ccncc2)c(-c2ccc(OCc3ccc4ccccc4n3)cc2)n1 [PF-2545920] |  |  | 67.8 |  |  |  | 36.73 |  |  | 
Cc1cccc2c1CC[C@H](CN1CCC(c3c(Cl)cccc3Cl)CC1)C[C@@H]2O [SB-612111] | 3.67 ± 3.21 |  | 146.6 | 6.11 | 0.77 ± 0.29 |  |  |  |  | 
CCCc1c(-c2ccc(O)cc2)nn(-c2ccc(O)cc2)c1-c1ccc(O)cc1 [PPT] |  |  | 71.1 |  |  |  | 48.2 | 8.3 |  | 
C=C(c1ccccc1OCc1cccc(Cl)c1)n1ccnc1 [Cloconazole HCl] | 33 |  | 92.8 |  |  |  |  |  |  | 
CCS(=O)(=O)N(Cc1cccnc1)c1cccc(-c2ccc(C#N)cc2)c1 [CBiPES] | 13.4 ± 6.58 |  | 139.6 | 4.77 | 17.1 ± 1.17 |  |  |  |  | 
Cc1nn(C)c2nc(NNC(=O)Nc3cc(Cl)nc(Cl)c3)cc(C(C)C)c12 [JTE-013] | 16.4 ± 0.42 | 5.44 | 105.9 | 5.22 | 5.97 ± 0.15 | 3.66 |  |  |  | 
C/C(=N\NC(=S)N1CCC1)c1ccccn1 [NSC319726] | < 0.02 | 8.00 | 104.2 | > 7.70 | < 0.02 |  |  |  |  | 
C[CH2][Hg][S]c1ccccc1C(=O)[O-].[Na+] [THIMEROSAL] | 13.5 ± 1.23 | 5.75 | 79.4 |  |  | 1.77 |  |  | 5.77 | 1.69 ± 0.13
polidocanol | 10.3 ± 1.62 | 6.68 | 85.8 | 6.66 | 0.22 ± 0.02 |  |  |  |  | 
NC(=NC1C2CC3CC(C2)CC1C3)Nc1ccc(I)cc1 (stereo not shown) [IPAG] | 11.5 ± 9.83 |  | 180.5 | 5.22 | 5.96 ± 0.57 |  | 81.85 |  |  | 
